# Test results published in US4769377A, “Adenosine receptor antagonists” (priority 1986, dated 1988).
# Target: T1, adenosine A1 receptors (Bos taurus, UniProt P28190)
# T1 sequence (P28190 1-326): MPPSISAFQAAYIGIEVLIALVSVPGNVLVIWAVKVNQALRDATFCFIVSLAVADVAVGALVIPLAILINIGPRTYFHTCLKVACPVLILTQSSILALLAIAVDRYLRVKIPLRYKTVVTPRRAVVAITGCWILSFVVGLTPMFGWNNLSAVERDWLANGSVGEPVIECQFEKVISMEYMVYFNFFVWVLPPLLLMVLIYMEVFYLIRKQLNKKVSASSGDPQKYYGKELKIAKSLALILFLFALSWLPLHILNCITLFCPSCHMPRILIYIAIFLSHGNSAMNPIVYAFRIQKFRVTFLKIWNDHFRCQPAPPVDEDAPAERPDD
# Assay: inhibition of [^3 H]CHA binding to A1 adenosine receptors in bovine brain membranes;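 further: Filter-bound radioactivity read by liquid scintillation counting, with dose-inhibition curves built from 4–8 test concentrations, each run in triplicate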
# Details: not given
SMILES,IC50,Ki
"C=CCn1c(=O)c2nc[nH]c2n(CC=C)c1=O [1,3-diallylX]",4000 nM,–
"CCn1c(=O)c2nc[nH]c2n(CC)c1=O [1,3-diethylX]",3000 nM,1400 nM
"Cn1c(=O)c2nc3ccccc3nc2n(C)c1=O [1,3-dimethylalloxazine]",25000 nM,–
"Cn1c(=O)[nH]c2ncn(C)c2c1=O [1,7-dimethylX]",30000 nM,7400 nM
CCCn1c(=O)n(CC)c(=O)c2scnc21 [1-ethyl-3-propyl-7-thiaxanthine],8000 nM,–
Cn1c(=O)[nH]c2nc[nH]c2c1=O [1-methylX],6000 nM,2600 nM
"Cn1cnc2c1c(=O)[nH]c(=O)n2C [3,7-Dimethyl (theobromine), theobromine]",–,68 nM
Cn1c(=O)[nH]c(=O)c2[nH]cnc21 [3-methylX],150000 nM,–
"Cn1c(=O)c2c(ncn2CC(O)CO)n(C)c1=O (stereo not drawn) [7-(2,3-dihydroxypropyl)T]",800000 nM,–
Cn1c(=O)c2c(ncn2CCCl)n(C)c1=O [7-(2-chloroethyl)T],5000 nM,–
Cn1c(=O)c2c(ncn2CCO)n(C)c1=O [7-(2-hydroxyethyl)T],100000 nM,–
Cn1c(=O)c2[nH]c(-c3ccco3)nc2n(C)c1=O [8-(2-furyl)T],18 nM,–
Cn1c(=O)c2[nH]c(-c3ccc4ccccc4c3)nc2n(C)c1=O [8-(2-naphthyl)T],5 nM,–
Cn1c(=O)c2[nH]c(-c3ccccn3)nc2n(C)c1=O [8-(2-pyridyl)T],100 nM,–
Cn1c(=O)c2nc(-c3cccs3)[nH]c2n(C)c1=O [8-(2-thienyl)T],5 nM,–
"COc1ccc(-c2nc3c([nH]2)c(=O)n(C)c(=O)n3C)cc1OC [8-(3,4-dimethoxyphenyl)T]",20 nM,–
Cn1c(=O)c2[nH]c(-c3c[nH]c4ccccc34)nc2n(C)c1=O [8-(3-indolyl)T],18 nM,–
Cn1c(=O)c2[nH]c(-c3cccnc3)nc2n(C)c1=O [8-(3-pyridyl)T],50 nM,–
Cn1c(=O)c2[nH]c(-c3ccc(Br)o3)nc2n(C)c1=O [8-(5-bromo-2-furyl)T],50 nM,–
Cc1ccc(-c2nc3c([nH]2)c(=O)n(C)c(=O)n3C)s1 [8-(5-methyl-2-thienyl)T],5 nM,–
Cn1cccc1-c1nc2c([nH]1)c(=O)n(C)c(=O)n2C [8-(N--methyl-2-pyrrolyl)T],20 nM,–
Cn1c(=O)c2[nH]c(-c3cccc(N)c3)nc2n(C)c1=O [8-(m-aminophenyl)T],–,5.8 nM

SMILES,IC50,Ki
Cn1c(=O)c2[nH]c(-c3cccc(Br)c3)nc2n(C)c1=O [8-(m-bromophenyl)T],–,4 nM
Cn1c(=O)c2[nH]c(-c3cccc(C(=O)O)c3)nc2n(C)c1=O [8-(m-carboxyphenyl)T],–,540 nM
Cn1c(=O)c2[nH]c(-c3cccc(O)c3)nc2n(C)c1=O [8-(m-hydroxyphenyl)T],–,3.1 nM
Cn1c(=O)c2[nH]c(-c3cccc([N+](=O)[O-])c3)nc2n(C)c1=O [8-(m-nitrophenyl)T],–,22 nM
CCCc1nc2c([nH]1)c(=O)n(C)c(=O)n2C [8-(n-propyl)T],100 nM,–
Cn1c(=O)c2[nH]c(-c3ccccc3C(=O)O)nc2n(C)c1=O [8-(o-carboxyphenyl)T],–,21000 nM
Cn1c(=O)c2[nH]c(-c3ccccc3F)nc2n(C)c1=O [8-(o-fluorophenyl)T],12 nM,–
Cn1c(=O)c2[nH]c(-c3ccccc3O)nc2n(C)c1=O [8-(o-hydroxyphenyl)T],–,4.8 nM
Cc1ccccc1-c1nc2c([nH]1)c(=O)n(C)c(=O)n2C [8-(o-methylphenyl)T],6 nM,–
Cn1c(=O)c2[nH]c(-c3ccccc3[N+](=O)[O-])nc2n(C)c1=O [8-(o-nitrophenyl)T],–,49 nM
Cn1c(=O)c2[nH]c(-c3ccc(Br)cc3)nc2n(C)c1=O [8-(p-bromophenyl)T],0.8 nM,0.34 nM
Cn1c(=O)c2[nH]c(-c3ccc(C(=O)O)cc3)nc2n(C)c1=O [8-(p-carboxyphenyl)T],–,18 nM
Cn1c(=O)c2[nH]c(-c3ccc(O)cc3)nc2n(C)c1=O [8-(p-hydroxyphenyl)T],–,2 nM
Cn1c(=O)c2[nH]c(-c3ccc([N+](=O)[O-])cc3)nc2n(C)c1=O [8-(p-nitrophenyl)T],–,4 nM
Cn1c(=O)c2[nH]c(-c3ccc(S(=O)(=O)O)cc3)nc2n(C)c1=O [8-(p-sulfo-phenyl)T],500 nM,–
Cn1c(=O)c2[nH]c(Cc3ccccc3)nc2n(C)c1=O [8-benzylT],1500 nM,–
Cn1c(=O)c2nc(C3CCCCC3)[nH]c2n(C)c1=O [8-cyclohexylT],3 nM,–
Cn1c(=O)c2[nH]c(C3CCCC3)nc2n(C)c1=O [8-cyclopentylT],2 nM,–
Cn1c(=O)c2[nH]c(CC3CCCC3)nc2n(C)c1=O [8-cyclopentylmethylT],30 nM,–
Cn1cnc2c(N)ncnc21 [9-methyladenine],35000 nM,–
"CCCn1c(=O)c2nc[nH]c2n(CCC)c1=O [B80, 1,3-dipropylxanthine]",200 nM,100 nM

# Same assay, conditions: Table I; vs [^3 H]-cyclohexyladenosine, bovine brain
row,SMILES,IC50
1,"Cn1c(=O)c2[nH]c(-c3ccc(Cl)cc3)nc2n(C)c1=O [B70, 8-(p-chlorophenyl)theophylline]",0.8 nM

# Same assay, conditions: Table II; vs [^3 H-CHA] in bovine brain
row,SMILES,IC50
1,"C=CCn1c(=O)c2[nH]c(-c3ccc(Cl)cc3N)nc2n(CC=C)c1=O [1,3-diallyl-8-(2-amino-4-chlorophenyl)X, 1,3-diallyl-8-(2-amino-4-chlorophenyl)xanthine]",0.8 nM
2,"CCn1c(=O)c2[nH]c(-c3ccc(Br)cc3)nc2n(CC)c1=O [1,3-diethyl-8-(p-bromophenyl)X]",1 nM
3,C=CCn1c(=O)c2[nH]c(-c3ccc(Cl)cc3N)nc2n(C)c1=O [1-allyl-3-methyl-8-(2-amino-4-chlorophenyl)X],2 nM
4,C=CCn1c(=O)c2[nH]c(-c3ccc(C)cc3N)nc2n(C)c1=O [1-allyl-3-methyl-8-(2-amino-4-methylphenyl)X],7 nM
5,C=CCn1c(=O)c2[nH]c(-c3ccccc3)nc2n(C)c1=O [1-allyl-3-methyl-8-phenylX],4 nM
6,Cn1c(=O)[nH]c2nc(-c3ccccc3)[nH]c2c1=O [1-methyl-8-phenylX],2.5 nM
7,Cn1c(=O)c2[nH]c(-c3cccc4ccccc34)nc2n(C)c1=O [8-(1-naphthyl)T],80 nM
8,"COc1ccc(-c2nc3c([nH]2)c(=O)n(C)c(=O)n3C)c(OC)c1 [8-(2,4-dimethoxyphenyl)T]",200 nM
9,"Cc1cc(O)cc(C)c1-c1nc2c([nH]1)c(=O)n(C)c(=O)n2C [8-(2,6-dimethyl-4-hydroxyphenyl)T]",30 nM
10,Cc1ccc(-c2nc3c([nH]2)c(=O)n(C)c(=O)n3C)c(N)c1 [8-(2-amino-4-methylphenyl)T],10 nM
11,"Cn1c(=O)c2[nH]c(-c3ccc(Cl)c(Cl)c3)nc2n(C)c1=O [8-(3,4-dichlorophenyl)T]",5 nM
12,"COc1cc(OC)cc(-c2nc3c([nH]2)c(=O)n(C)c(=O)n3C)c1 [8-(3,5-dimethoxyphenyl)T]",500 nM
13,Cn1c(=O)c2[nH]c(-c3ccoc3)nc2n(C)c1=O [8-(3-furyl)T],4 nM
14,Cn1c(=O)c2[nH]c(-c3ccncc3)nc2n(C)c1=O [8-(4-pyridyl)T],35 nM
15,Cn1c(=O)c2[nH]c(-c3cccc(N)c3)nc2n(C)c1=O [8-(m-aminophenyl)T],10 nM
16,Cn1c(=O)c2[nH]c(-c3cccc(Br)c3)nc2n(C)c1=O [8-(m-bromophenyl)T],10 nM
17,Cn1c(=O)c2[nH]c(-c3cccc(C(=O)O)c3)nc2n(C)c1=O [8-(m-carboxyphenyl)T],1000 nM
18,CN(C)c1cccc(-c2nc3c([nH]2)c(=O)n(C)c(=O)n3C)c1 [8-(m-dimethylaminophenyl)T],80 nM
19,Cn1c(=O)c2[nH]c(-c3cccc(F)c3)nc2n(C)c1=O [8-(m-fluorophenyl)T],4 nM
20,Cn1c(=O)c2[nH]c(-c3cccc(O)c3)nc2n(C)c1=O [8-(m-hydroxyphenyl)T],6 nM
21,COc1cccc(-c2nc3c([nH]2)c(=O)n(C)c(=O)n3C)c1 [8-(m-methoxyphenyl)T],20 nM
22,Cc1cccc(-c2nc3c([nH]2)c(=O)n(C)c(=O)n3C)c1 [8-(m-methylphenyl)T],13 nM

row,SMILES,IC50
1,Cn1c(=O)c2[nH]c(-c3cccc([N+](=O)[O-])c3)nc2n(C)c1=O [8-(m-nitrophenyl)T],50 nM
2,Cn1c(=O)c2[nH]c(-c3ccccc3C(=O)O)nc2n(C)c1=O [8-(o-carboxyphenyl)T],2500 nM
3,Cn1c(=O)c2[nH]c(-c3ccccc3O)nc2n(C)c1=O [8-(o-hydroxyphenyl)T],10 nM
4,COc1ccccc1-c1nc2c([nH]1)c(=O)n(C)c(=O)n2C [8-(o-methoxyphenyl)T],350 nM
5,Cn1c(=O)c2[nH]c(-c3ccccc3[N+](=O)[O-])nc2n(C)c1=O [8-(o-nitrophenyl)T],80 nM
6,CCCCOc1ccc(-c2nc3c([nH]2)c(=O)n(C)c(=O)n3C)cc1 [8-(p-butoxyphenyl)T],4 nM
7,Cn1c(=O)c2[nH]c(-c3ccc(C(=O)O)cc3)nc2n(C)c1=O [8-(p-carboxyphenyl)T],50 nM
8,CN(C)c1ccc(-c2nc3c([nH]2)c(=O)n(C)c(=O)n3C)cc1 [8-(p-dimethylaminophenyl)T],1.8 nM
9,CCOc1ccc(-c2nc3c([nH]2)c(=O)n(C)c(=O)n3C)cc1 [8-(p-ethoxyphenyl)T],2 nM
10,CCc1ccc(-c2nc3c([nH]2)c(=O)n(C)c(=O)n3C)cc1 [8-(p-ethylphenyl)T],0.8 nM
11,Cn1c(=O)c2[nH]c(-c3ccc(F)cc3)nc2n(C)c1=O [8-(p-fluorophenyl)T],3.5 nM
12,Cn1c(=O)c2[nH]c(-c3ccc(O)cc3)nc2n(C)c1=O [8-(p-hydroxyphenyl)T],2 nM
13,Cn1c(=O)c2[nH]c(-c3ccc(I)cc3)nc2n(C)c1=O [8-(p-iodophenyl)T],1.3 nM
14,CC(C)c1ccc(-c2nc3c([nH]2)c(=O)n(C)c(=O)n3C)cc1 [8-(p-isopropylphenyl)T],2.5 nM
15,COc1ccc(-c2nc3c([nH]2)c(=O)n(C)c(=O)n3C)cc1 [8-(p-methoxyphenyl)T],1.5 nM
16,Cc1ccc(-c2nc3c([nH]2)c(=O)n(C)c(=O)n3C)cc1 [8-(p-methylphenyl)T],0.8 nM
17,CSc1ccc(-c2nc3c([nH]2)c(=O)n(C)c(=O)n3C)cc1 [8-(p-methylthiophenyl)T],2 nM
18,Cn1c(=O)c2[nH]c(-c3ccc([N+](=O)[O-])cc3)nc2n(C)c1=O [8-(p-nitrophenyl)T],8 nM
19,Cn1c(=O)c2[nH]c(-c3ccc(-c4ccccc4)cc3)nc2n(C)c1=O [8-(p-phenylphenyl)T],3.5 nM
20,Cn1c(=O)c2[nH]c(-[c-]3cccc3)nc2n(C)c1=O.[Fe+2].c1cc[cH-]c1 [8-ferrocenylT],20 nM
21,Cn1c(=O)c2[nH]c([N+](=O)[O-])nc2n(C)c1=O [8-nitroT],3500 nM

# Same assay, conditions: bovine brain
row,SMILES,adenosine receptor blocking activity (in words)
1,"C=CCn1c(=O)c2[nH]c(-c3ccc(Cl)cc3N)nc2n(CC=C)c1=O [1,3-diallyl-8-(2-amino-4-chlorophenyl)X, 1,3-diallyl-8-(2-amino-4-chlorophenyl)xanthine]",useful activity as an adenosine receptor antagonist
